In paper PMC13289030, “Qualification of the human Reconstructed Intestine Micronuclei Cytome assay for site-of-contact genotoxic hazard identification” (NAM journal, 2025):
Values after ≈ are worked out from the molar mass of the structure shown. “Also recorded” adds a separate entry of the source. Like-named read-outs stand apart in the source and are kept apart here. Where a SMILES comes first, the peptide text is derived from it.

Assays:
[1] = published genotoxic profile; ref Kirkland et al., 2016; EFSA; cited from earlier work
[2] = test system: EpiIntestinal™ microtissues; assay: RICyt assay: micronuclei (MN) cytome scoring in EpiIntestinal microtissues after 10-day repeated apical exposure
[3] = cited from earlier work
[4] = test system: EpiIntestinal™ microtissues; assay: Cytotoxicity / relative cell count (RCC) of dissociated EpiIntestinal microtissues; conditions: for Cytotoxicity / cell viability (result in words) / Cytotoxicity: 10-day exposure; for Cytotoxicity / cell viability (result in words): tested doses
[5] = Test material solubility limit for top test concentration; assay type: physicochemical; conditions: for solubility: read-out: Concentration above which test material is insoluble (top test concentration)
[6] = test system: EpiIntestinal™ microtissues
[7] = test system: EpiIntestinal™ microtissues; remark: listed apart in the source
topoisomerase II = test system: topoisomerase II; parameters: method as in Maralhas et al., 2006; conditions: ref Maralhas et al., 2006; cited from earlier work
Caco-2 = conditions: ref Schrenk et al., 2022; cited from earlier work
[8] = test system: EpiIntestinal™ microtissues; conditions: cited from earlier work
[9] = 10-day exposure, relative to solvent control and historical negative control range (≤2.4 %)
[10] = 10-day exposure, positive = significant, dose-dependent %MN increase above historical negative range (>2.4 %)
[11] = published genotoxic profile, ref Kirkland et al., 2016, EFSA

Compound | In vitro genotoxicity tests [1] | Karyorrhectic cells (cytome analysis) ([2]; 10-day exposure) | %MN induction (result in words) [2, 9] | In vivo genotoxicity tests [3, 11] | Cytotoxicity / cell viability (result in words) [4] | In vivo genotoxicity tests ([3]; in vivo) | also measured
CC(=O)O[C@H]1C(=O)[C@@]2(C)[C@H]([C@H](OC(=O)c3ccccc3)[C@]3(O)C[C@H](OC(=O)[C@H](O)[C@@H](NC(=O)c4ccccc4)c4ccccc4)C(C)=C1C3(C)C)[C@]1(OC(C)=O)CO[C@@H]1C[C@@H]2O [Paclitaxel] | + MN, polyploidy in a CA test and in MLA | non-significant but dose dependent increase in karyorrhectic cell population | statistically significant increase in %MN; also recorded: positive induction of MN | + MN in bone marrow and liver | decrease in cell viability at the top two exposed doses |  | RICyt outcome (genotoxic classification) [2, 10]: true positive
Aflatoxin B1 |  |  |  |  |  | + MN, CA, UDS − comets | %MN induction (result in words) [2]: significant and dose-dependent formation of MN; RICyt outcome (genotoxic classification) [2]: genotoxicity was successfully detected; also recorded: Positive; Loss/reduction in cell viability [4]: ~40%
CC(C)[C@@H]1CC[C@@H](C)C[C@H]1O [d,l-Menthol, D,L-MENTHOL] |  |  |  |  |  | - | Concentration above which test material is insoluble (top test concentration) [5]: 500 µg/mL; Cytotoxicity / cell viability (result in words) [6]: no significant impact on cell viability; %MN induction (result in words) [7]: low level of MN which fell within 95 % confident limit of the historical negative control
CCOS(C)(=O)=O [Ethyl methanesulfonate] |  |  |  |  |  | + MN, comet and CA | Cytotoxicity / cell viability (result in words) [6]: no observable cytotoxicity
C=CCc1ccc(O)c(OC)c1 [Eugenol] |  | consistent increase in karyorrhectic cell population |  |  | cytotoxicity observed in the tested doses | + MN only at very high doses. Equivocal | %MN induction (result in words) ([2]; 10-day exposure, relative to solvent control and historical negative control range (≤2.4 %), listed as EUG): very close to the established 95 % upper confident limits; RICyt outcome (genotoxic classification) [2, 10]: Equivocal; Topoisomerase II activity (topoisomerase II): could inhibit topoisomerase II activity; Genotoxicity in vivo ([3]; in vivo): genotoxic positive
C[C@H]1C(=O)O[C@@H]2CCN3CC=C(COC(=O)[C@](C)(O)[C@]1(C)O)[C@H]23 [Monocrotaline] |  |  |  |  |  | + DNA adduct, DNA crosslinking and MN | Cytotoxicity / cell viability (result in words) [6]: without obvious cytotoxicity; Gut permeability (Caco-2): moderate gut permeability; %MN increment ([7]; human): 2.53%
CCN(N=O)C(N)=O [N-Ethyl-N-nitrosourea] | + MN, CA, MLA, HPRT mutations and UDS | non-significant increase in karyorrhectic cells | statistically significant increases in MN in a dose dependent manner | + CA, MN, comet |  |  | %MN induction (result in words) ([2]; 10-day exposure, relative to solvent control and historical negative control range (≤2.4 %), listed as ENU): positive induction of MN; Cytotoxicity ([4]; across tested concentrations (ENU up to 150 µg/ml; GA up to 25 µg/ml)): ≤ 15%
O=Cc1ccc(CO)o1 [5-Hydroxymethyl furfural, 5-Hydroxymethylfurfural] | + Comet and SCE - for MN | increase in karyorrhectic cell population though not statistically significant | consistently low without exceeding the historical negative range | - MN | Cytotoxicity was observed with increasing doses |  | RICyt outcome (genotoxic classification) [2, 10]: Negative; RICyt outcome (genotoxic classification) ([2]; 10-day exposure, positive = significant, dose-dependent %MN increase above historical negative range (>2.4 %), listed as 5-HMF): clear negative
COC(=O)[C@H](Cc1ccccc1)NC(=O)[C@@H](N)CC(=O)O [Aspartame] (H-Asp-Phe-OMe) | - CA and MN - SCE |  | did not produce significant %MN | - MN, comet and CA | did not produce significant %MN and cytotoxicity |  | RICyt outcome (genotoxic classification) [2, 10]: Negative; RICyt outcome (genotoxic classification) ([2]; 10-day exposure, positive = significant, dose-dependent %MN increase above historical negative range (>2.4 %), listed as aspartame): clear negative
CC(C)=CCC/C(C)=C/CC/C(C)=C/CC/C(C)=C/CC/C(C)=C/CC/C(C)=C/CC/C(C)=C/CC1=C(C)C(=O)c2ccccc2C1=O [Menaquinone 7] |  |  | no significant MN induction |  | no significant MN induction nor cytotoxicity |  | Concentration above which test material is insoluble (top test concentration) ([5]; in solvent/culture media): 1000 µg/mL; Other nuclear anomalies (cytome analysis) ([2]; 10-day exposure): not detected
c1ccc2c(c1)cc1ccc3cccc4ccc2c1c34 [benzo(a)pyrene] |  |  |  |  |  |  | MN induction / genotoxicity in RICyt platform [8]: genotoxicity was successfully detected
CC[C@]1(O)C[C@@H]2CN(CCc3c([nH]c4ccccc34)[C@@](C(=O)OC)(c3cc4c(cc3OC)N(C)[C@H]3[C@@](O)(C(=O)OC)[C@H](OC(C)=O)[C@]5(CC)C=CCN6CC[C@]43[C@@H]65)C2)C1 [vinblastine] |  |  |  |  |  |  | MN induction / genotoxicity in RICyt platform ([8]; previous publication, ref Lim et al., 2022): positive induction of MN
COc1cc(/C=C/C(=O)CC(=O)/C=C/c2ccc(O)c(OC)c2)ccc1O [Curcumin] |  | increase in karyorrhectic cells | no significant formation of MN |  |  |  | solubility ([5]; in solvent/culture media): 50 µg/mL (≈ 136 µM); Cytotoxicity ([4]; at higher doses / top two concentrations): 15–20%
C/C=C\c1cc(OC)c(OC)cc1OC [β-asarone] | + MN, comet and SCE |  |  | MN negative |  |  | Cytotoxicity / cell viability (result in words) [6]: Increases in cytotoxicity at the top two doses; RICyt outcome (genotoxic classification) [7]: Negative
Nc1nc(N)nc(N)n1 [Melamine] |  |  | not significant and below the historical negative range |  | No genotoxicity nor cytotoxicity were detected |  | solubility ([5]; in solvent/culture media): 500 µg/mL (≈ 3960 µM)
